From patent publication US12480163B2, “Compositions and methods for identification assessment, prevention, and treatment of Ewing sarcoma using TP53 dependency biomarkers and modulators” (Dana-Farber Cancer Institute, Inc., priority 2018, dated 2025) come the findings set out here.

For data set [1], the system named is TP53 wild-type Ewing sarcoma cell lines. Put plainly: CellTiter-Glo cell viability assay, TP53 wild-type Ewing sarcoma cell lines. The data set is classed as cell-based. Conditions: treated for 3 d. The protocol:
(§1) Cell viability was assessed using the CellTiter-Glo® Luminescent Cell Viability Assay (Promega). Viability assays were performed after Ewing sarcoma cell lines were infected with sgRNAs targeting TP53, MDM2, MDM4, PPM1D, or USP7 or treated with ATSP-7041, ATSP-7342, GSK2830371, P5091, XL-188, or vehicle control.

A further data set addresses T1, Wip1 (Homo sapiens, UniProt O15297).
T1 construct: Whole-cell lysates were extracted in cell lysis buffer (Cell Signaling); endogenous in cells; host or cells: TP53 wild-type Ewing sarcoma cell lines
T1 sequence (O15297 1-605): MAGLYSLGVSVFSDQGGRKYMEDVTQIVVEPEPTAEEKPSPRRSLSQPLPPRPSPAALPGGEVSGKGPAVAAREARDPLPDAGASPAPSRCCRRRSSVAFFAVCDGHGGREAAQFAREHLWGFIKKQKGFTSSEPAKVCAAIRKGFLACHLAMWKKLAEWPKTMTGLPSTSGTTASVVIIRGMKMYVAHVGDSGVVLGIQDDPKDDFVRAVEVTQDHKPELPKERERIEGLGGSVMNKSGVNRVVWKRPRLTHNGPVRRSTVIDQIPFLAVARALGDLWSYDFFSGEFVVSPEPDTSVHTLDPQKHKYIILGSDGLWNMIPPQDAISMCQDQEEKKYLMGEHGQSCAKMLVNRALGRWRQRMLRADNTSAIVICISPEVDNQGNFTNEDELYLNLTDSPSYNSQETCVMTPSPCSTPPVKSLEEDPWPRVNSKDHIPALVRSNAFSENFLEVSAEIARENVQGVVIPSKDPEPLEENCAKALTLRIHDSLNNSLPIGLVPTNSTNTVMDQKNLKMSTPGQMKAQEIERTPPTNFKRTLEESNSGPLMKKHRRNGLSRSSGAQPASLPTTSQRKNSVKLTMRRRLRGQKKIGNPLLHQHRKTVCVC
The data set is described as follows: Western immunoblotting of Wip1 and pSer15-p53. The data set is classed as cell-based. Particulars: Western blot. On the procedure: (§2) Whole-cell lysates were extracted in cell lysis buffer (Cell Signaling) supplemented with EDTA-free protease inhibitors and PhosSTOP™ phosphatase inhibitors (Roche). Western immunoblotting was performed using standard techniques. Primary antibodies used included anti-MDM2 (ab178938; Abcam), anti-MDM2 (86934; Cell Signaling), anti-MDM4 (A300-287A; Bethyl Laboratories), anti-p53 (2527S; Cell Signaling), anti-p21 (2946S; Cell Signaling), anti-Vinculin (18058; Abcam), anti-Wip1 (A300-664A; Bethyl Laboratories), anti-pSer15-p53 (9284; Cell Signaling), anti-USP7 (A300-033A; Bethyl Laboratories), and anti-Tubulin (cp06; CalBiochem).

Data set [2] concerns TP53 wild-type Ewing sarcoma cell lines. Put plainly: Annexin V staining, flow cytometry (cell death). The format is cell-based. Particulars: TC32 and CHLA258; 2 d ATSP-7041 (2 μM, 4 μM) or P5091 (6.5 μM, 8 μM), 3 d GSK2830371 (15 μM). The protocol:
Cell death was measured using flow cytometric analysis of Annexin V staining according to the manufacturer's instructions (eBioscience). Data analysis was completed using Flowjo 7.6 software (Treestar).

For another data set, the system named is TP53 knockout cells. Put plainly: CellTiter-Glo cell viability assay, TP53 knockout cells. The data set is classed as cell-based. Conditions: TP53 knockout cells vs control cells, treated for 3 d. The protocol:
Lentivirus was produced by transfecting HEK-293T cells with the pLentiV2 vector (Addgene plasmid 52961) and the packaging plasmids pCMV8.9 and pCMV-VSVG according to the FuGENER 6 (Roche) protocol. For lentiviral transduction, Ewing sarcoma cells were incubated with 2 ml of virus and 8 μg/ml of polybrene (Sigma-Aldrich). Cells were selected in puromycin (Sigma-Aldrich) 48 h after infection for single knockout experiments. For dual knockout experiments, PPM1D, USP7, and MDM4 sgRNA sequences were cloned into a LentiV2 vector with a blasticidin selection marker (Addgene plasmid 83480).
d. sgRNA Sequences sgRNAs were designed using the Broad Institute's sgRNA designer tool. The following sequences were used as control or to target the respective genes: control sgRNA, 5′-[…]-3′ (SEQ ID NO: 125); sgMDM2 2: 5′-[…]-3′ (SEQ ID NO: 126); sgMDM2 5: 5′-[…]-3′ (SEQ ID NO: 127); sgMDM4 4: 5′-[…]-3′ (SEQ ID NO: 128); sgMDM4 6: 5′-[…]-3′ (SEQ ID NO: 129); sgUSP7 1: 5′-[…]-3′ (SEQ ID NO: 130); sgUSP7 2: 5′-ACCATACCCAAATTATTC CG-3′ (SEQ ID NO: 131); sgPPMID 1: 5′-[…]-3′ (SEQ ID NO: 132); sgPPMID 2: 5′-[…]-3′ (SEQ ID NO: 133); sgTP53 1: 5′-[…]-3′ (SEQ ID NO: 134); sgTP53 2: 5′-[…]-3′ (SEQ ID NO: 135); sgTP53 4: 5′-[…]-3′ (SEQ ID NO: 136); and sgTP53 5: 5′-[…]-3′ (SEQ ID NO: 137). e. Protein Extraction and Immunoblotting
as §1

A further data set deals with T2, p53-MDM4 complex (Homo sapiens, UniProt O15151).
T2 construct: endogenous in cells; host or cells: TC32 Ewing sarcoma cells (TP53 wild-type), lysed in NP-40 buffer
T2 sequence (O15151 1-490): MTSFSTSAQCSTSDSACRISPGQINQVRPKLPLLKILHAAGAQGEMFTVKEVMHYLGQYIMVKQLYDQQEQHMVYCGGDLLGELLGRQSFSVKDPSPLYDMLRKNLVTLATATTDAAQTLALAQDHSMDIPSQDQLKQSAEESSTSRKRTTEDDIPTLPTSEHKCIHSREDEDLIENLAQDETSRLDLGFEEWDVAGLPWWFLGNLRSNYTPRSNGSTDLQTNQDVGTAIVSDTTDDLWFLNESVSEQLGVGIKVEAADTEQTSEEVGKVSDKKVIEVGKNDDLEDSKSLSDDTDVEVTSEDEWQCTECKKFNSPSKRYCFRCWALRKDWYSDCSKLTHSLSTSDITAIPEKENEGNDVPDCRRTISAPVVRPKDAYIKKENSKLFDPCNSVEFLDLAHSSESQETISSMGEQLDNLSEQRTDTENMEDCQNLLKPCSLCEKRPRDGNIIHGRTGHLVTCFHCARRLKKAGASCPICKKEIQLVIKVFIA
The data set is described as follows: MDM4 immunoprecipitation from TC32 cell lysates, p53 and MDM4 Western blot. The data set is classed as binding. Conditions: TC32 lysates after RG7388 pre-treatment, 20 μM compound. The protocol: g. Immunoprecipitation Experiments
Five million TC32 cells were treated with either 10 μM RG7388 or vehicle control for 4 h. Cells were lysed in buffer A (150 mM NaCl, 50 mM Tris, and 0.5% NP-40, pH 7.4) and combined with anti-MDM4 antibody (A300-287A; Bethyl Laboratories) in the presence of 20 μM RG7388, ATSP-7041, or vehicle control in a total volume of 1 ml, rotating at 4° C. for 16 h. Subsequently, 50 μl washed Protein AG beads (sc-2003; Santa Cruz) were added and the mixture was incubated for 1 h rotating at 4° C. Beads were washed three times in buffer A, and protein complexes were eluted by boiling in NuPage® LDS Sample Buffer (NP0007; Invitrogen) supplemented with DTT. Samples were analyzed by Western blot with antibodies against p53 DO-1 (sc-126; Santa Cruz) and MDM4 (A300-287A; Bethyl Laboratories).

The test system of another data set is MDM2 protein levels. Put plainly: Western immunoblotting of MDM2 in TP53 mutated cell lines A673 and EWS502. The data set is classed as cell-based. Conditions: TP53 mutated cell lines A673 and EWS502, 1 μM; 4 h. The protocol: as §2
The subject of data set [3] is MDM2, p53, and p21 protein levels. Put plainly: Western immunoblotting of MDM2, p53, p21 in TP53 wild-type Ewing sarcoma cell lines. The format is cell-based. Particulars: for MDM2 protein levels, combination of ATSP-7041 and P5091 compared with ATSP-7041 alone: TC32 and TC138 cells, 2 d. On the procedure: as §2
Where [4] appears, read: TP53 wild-type Ewing sarcoma cell lines, micromolar concentrations.

Structures are written as SMILES. Entries after “also recorded” stand apart in the source; their conditions may differ.

Consider `Cc1ncc(Cl)cc1NCc1ccc(C(=O)N[C@@H](CC2CCCC2)C(=O)NC2CC2)s1` [GSK2830371, 5-[[(5-Chloro-2-methyl-3-pyridinyl)amino]methyl]-N-[(1S)-1-(cyclopentylmethyl)-2-(cycloprpylamino)-2-oxoethyl]-2-thiophenecarboxamide], for which the “cell viability, normalized to vehicle control” value (“cell viability, normalized” below) in data set [1] (setting [4]) is “reduce viability; also recorded: notable increase in susceptibility”. Further, the “phosphorylation of Serine 15 of p53 (pSer15-p53)” value at Wip1 (single agent) is reported as “increased pSer15-p53; also recorded: triggered a surge in phosphorylation of Serine 15 of p53”. Moreover, the Wip1 protein levels entry on Wip1 (time-dependent) is listed as “decreased protein levels of Wip1; also recorded: reduced the protein levels of Wip1”. Also, the “cell death measured by Annexin V staining” value in data set [2] is given as “triggers cell death; also recorded: GSK2830371-induced cell death”. Moreover, the “effect of TP53 knockout on the cytotoxic effect of the compound (viability)” value (“effect of TP53 knockout” below) with TP53 knockout cells was “less effective”.

As for `C[C@H](CC(=O)N1CCC(O)(Cn2cnc3cc(NC(=O)CCN4CCN(C)CC4)ccc3c2=O)CC1)c1ccccc1` [XL-188, (R)—N-(3-((4-hydroxy-1-(3-phenylbutanoyl)piperidin-4-yl)methyl)-4-oxo-3,4-dihydroquinazolin-7-yl)-3-(4-methylpiperazin-1-yl) propanamide], the “cell viability, normalized” value is on record as “especially robust effect” in data set [1] (TC32 cells) and “reduced viability predominantly in TP53 wild-type Ewing sarcoma cell lines” in data set [1] (setting [4]). Besides, in the data set on TP53 knockout cells, the “effect of TP53 knockout” value is reported as “completely reversed the cytotoxic effect”.

Consider `COc1cc(C(=O)O)ccc1NC(=O)[C@@H]1N[C@@H](CC(C)(C)C)[C@](C#N)(c2ccc(Cl)cc2F)[C@H]1c1cccc(Cl)c1F` [RG7388], for which the “disruption of p53-MDM4 complex (MDM4 immunoprecipitation)” value at p53-MDM4 complex is recorded as “does not interrupt binding; also recorded: unable to dissociate”. The MDM2 protein levels entry in the data set on MDM2 protein levels is recorded as “no response; also recorded: no increase in MDM2 protein”; in data set [3] (TP53 wild-type cell lines TC32 and TC138, 1 μM, 4 h), “increase in MDM2 protein levels”.

As for `CC(=O)c1cc([N+](=O)[O-])c(Sc2cccc(Cl)c2Cl)s1` [P5091], the “cell viability, normalized” value in data set [1] (setting [4]) is reported as “reduce viability; also recorded: relatively more cytotoxic”. Also, the “MDM2 protein levels, combination of ATSP-7041 and P5091 compared with ATSP-7041 alone” value in data set [3] is reported as “decreased MDM2 protein levels; also recorded: decreased the level of MDM2 protein”; in data set [3] (listed as P0951), “suppresses the feedback up-regulation of MDM2”. The “p53 and p21 protein levels” value in data set [3] (TP53 wild-type cells TC32 and TC138, Western blot) is “increase in p53 and p21 protein levels; also recorded: increased p53 and p21 protein levels in a time-dependent fashion”. Besides, in data set [2], the “cell death measured by Annexin V staining” value is given as “triggers cell death; also recorded: P5091-induced cell death”. The “effect of TP53 knockout” value with TP53 knockout cells is “did not rescue”.
